According to patent US20210059977A1, “COMBINATION THERAPIES FOR THE TREATMENT OF AMYOTROPHIC LATERAL SCLEROSIS AND RELATED DISORDERS” (The General Hospital Corporation, priority 2018, published 2021):

How the values were obtained:
SOD1^G93A mouse model [1] = test: Age at paresis onset; format: in vivo, mice
Protocol: (§1) Beginning at P50, weight and neurological score (using the ALS TDI criteria) (Hatzipetros, T., et al. (2015). “A Quick Phenotypic Neurological Scoring System for Evaluating Disease Progression in the SOD1-G93A Mouse Model of ALS.” J Vis Exp(104); Leitner M., et. al. (2009). “Working with ALS mice: Guidelines for preclinical testing & colony management.” The Jackson Laboratory) were recorded for each mouse every 5 days until death or euthanasia. ALS TDI criteria are as follows: • Score of 0: Full extension of hind legs away from lateral midline when mouse is suspended by its tail, and mouse can hold this for two seconds, suspended two to three times. • Score of 1: Collapse or partial collapse of leg extension towards lateral midline (weakness) or trembling of hind legs during tail suspension. • Score of 2: Toes curl under at least twice during walking of 12 inches, or any part of foot is dragging along cage bottom/table. • Score of 3: Rigid paralysis or minimal joint movement, foot not being used for generating forward motion. • Score of 4: Mouse cannot right itself within 15 seconds after being placed on either side. *Mice were euthanized upon obtaining a score of 4.
(§2) 149 male and female age- and litter-matched transgenic (Tg) SOD1^G93A and wild-type (Wt) SOD1^G93A mice were used with the following breakdown: Females (19 WtSOD1-Vehicle, 17 WtSOD1-Cromolyn, 19 TgSOD1-Vehicle, and 17 TgSOD1-Cromolyn) and Males (18 WtSOD1-Vehicle, 21 WtSOD1-Cromolyn, 21 TgSOD1-Vehicle, 17 TgSOD1-Cromolyn).

alpha-synuclein peptides = alpha-synuclein peptides (Homo sapiens, UniProt P37840); conditions: cited from earlier work
[2] = target: G-protein-coupled receptor 35 (GPR35) (Homo sapiens, UniProt Q9HC97); conditions: cited from earlier work
Chain of G-protein-coupled receptor 35 (GPR35) (Q9HC97 whole entry, species assumed): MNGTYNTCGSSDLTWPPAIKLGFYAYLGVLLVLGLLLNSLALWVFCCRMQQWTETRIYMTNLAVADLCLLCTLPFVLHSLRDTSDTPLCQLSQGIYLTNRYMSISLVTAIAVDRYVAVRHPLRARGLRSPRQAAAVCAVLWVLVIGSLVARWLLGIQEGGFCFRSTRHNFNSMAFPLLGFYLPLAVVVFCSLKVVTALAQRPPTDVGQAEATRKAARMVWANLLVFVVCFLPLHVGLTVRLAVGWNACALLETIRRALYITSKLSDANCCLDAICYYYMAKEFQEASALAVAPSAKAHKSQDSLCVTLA

SOD1^G93A mouse model [3] = test: Gait analysis (stride length and width); format: in vivo, mice; conditions: 6.3 mg/kg i.p.
Protocol: Gait Analysis Manual gait analysis was performed using a limb painting procedure similar to previous studies. Briefly, mice were first trained to traverse a horizontal corridor leading directly into their home cage by gentle nudges in the appropriate direction. On test days the bottoms of their hindlimbs were painted, by brushing with non-toxic food dye (Fisher Scientific), and the mice were allowed to walk the path to their home cage on a piece of paper. Three trials were performed at each experimental time point (P70, P90, P110, P130, P150). Stride length and width was determined by measuring the distance between the same points, on the ball mount region of the footprint, in two consecutive footprints and calculated from 2-3 hindpaw strides. Mean data from 4-6 strides across three trials was calculated.
as §2

beta-amyloid peptides = beta-amyloid peptides (Homo sapiens, UniProt P05067); conditions: cited from earlier work
Chain of beta-amyloid peptides (P05067 672-713 limits assumed): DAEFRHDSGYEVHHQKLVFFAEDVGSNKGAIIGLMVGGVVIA

GPR35 = GPR35 western blots, spinal cord; format: in vivo, mice; conditions: non-lumbar region of the spinal cord; TgSOD1-Cromolyn vs TgSOD1-Vehicle; p=0.167
Protocol: Western blots were performed as previously described (Mueller et al., 2018). Briefly, […] of mouse spinal cord protein was re-suspended in sample buffer, boiled at 95° C. for 5 minutes, and fractioned on 10-20% Tricine gels (Life Technologies), and the membrane was then blocked with 5% milk in tris-buffered saline with Tween 20 (TBST) before immunodetection with antibodies specific for the following: GPR35 (Novus Biologicals, Littleton, Colo.; NBP2-24640), and beta-actin (Cell Signaling Technology, Danvers, Mass.; 4967S). Primary antibody incubation overnight was followed by 4 washes (15 min, RT) in TBST before incubation with the secondary antibody for 1 h (HRP-conjugated goat anti-rabbit IgG Jackson ImmunoResearch Laboratories, West Grove, Pa.; and HRP-conjugated goat anti-mouse Bio-Rad Laboratories Hercules, Calif.). After 4 washes in TBST (15 min, RT) proteins were visualized using the ECL detection system (NEN, Boston, Mass.). GPR35 integrated density values (IDV) were normalized to beta-actin.
as §2

[4] = test system: pro-inflammatory cytokines and chemokines in spinal cord; test: Meso Scale Discovery multi-spot cytokine assay, spinal cord; format: in vivo, mice; conditions: TgSOD1-Cromolyn vs TgSOD1-Vehicle; p=0.0273
Protocol: Spinal cord frozen tissue was homogenized in ice-cold RIPA buffer (Thermo Fisher Scientific, #8990) supplemented with protease inhibitor cocktail (Thermo Fisher Scientific, #78430). Samples were centrifuged at 45,000 g for 30 minutes at 4° C. using an Optima TL ultracentrifuge and a TLA 120.2 rotor (Beckman Coulter). Expression levels of 10 pro-inflammatory cytokines and chemokines were assessed in the supernatants derived from spinal cord tissue or in the plasma, using an electrochemiluminescence-based multi-array method and MESO Quickplex SQ 120 system (MSD, Rockville, Md., USA). The 96-well V-PLEX Proinflammatory Mouse 1 Kit (Meso Scale Discovery, #K15048D) was used to measure simultaneously IFN-γ, IL-1β, IL-2, IL-4, IL-5, IL-6, CXCL1/KC/GRO, IL-10, IL-12, p70, and TNFα, following the manufacturer's instructions. Briefly, samples were diluted in the calibrator and added to the plate coated with an array of cytokine capture antibodies. […] The plate was washed with the wash buffer and the 2× Read Buffer T was added. The signal was immediately measured on a MESO QuickPlex SQ 120 instrument and was analyzed using the DISCOVERY WORKBENCH 4.0 software (Meso Scale Diagnostics, LLC., Rockville, Md., USA). Protein concentrations in the supernatants or the plasma samples were measured using the Pierce BCA protein assay kit (Thermo Scientific). […]

SOD1^G93A mouse model [5] = test: Neurological scoring (ALS TDI criteria); format: in vivo, mice; conditions: 6.3 mg/kg i.p.
Protocol: as §1, §2

Q: Which “median age of onset (age at paresis onset)” value (SOD1^G93A mouse model [1]; TgSOD1-Cromolyn group, all mice, 6.3 mg/kg i.p., vehicle group 99 days) does the source give for `O=C(O)c1cc(=O)c2c(OCC(O)COc3cccc4oc(C(=O)O)cc(=O)c34)cccc2o1` [cromolyn, cromolyn sodium] here?
A: 107 days

Q: And the “onset of motor symptoms as measured by age at paresis onset” value (SOD1^G93A mouse model [1]; all TgSOD1 mice, Mantel-Cox test, p<0.0001)?
A: significant effect of cromolyn treatment on the onset of motor symptoms

Q: What about the “onset of motor symptoms” value (SOD1^G93A mouse model [1]; female mice, Mantel-Cox test, p=0.0009) of the same compound?
A: significant delay in the onset of motor symptoms

Q: What about the “onset of motor symptoms” value (SOD1^G93A mouse model [1]; male mice, Mantel-Cox test, p=0.0193) of the same compound?
A: significant delay in the onset of motor symptoms

Q: What about the “binding to alpha-synuclein peptides and polymerization” value (alpha-synuclein peptides) of the same compound?
A: inhibiting their polymerization to higher order aggregates

Q: What about the “agonism of GPR35” value [2] of the same compound?
A: potent agonist

Q: And the stride length (SOD1^G93A mouse model [3]; TgSOD1 mice)?
A: no effect on stride length

Q: What about the stride width (SOD1^G93A mouse model [3]; all groups, two-way ANOVA) of the same compound?
A: no effect of treatment

Q: And the “binding to beta-amyloid peptides and polymerization” value (beta-amyloid peptides)?
A: inhibiting their polymerization to higher order aggregates

Q: What about the “GPR35 levels (western blot, normalized to beta-actin)” value (GPR35) of the same compound?
A: trend towards an increase

Q: And the “CXCL1 levels in spinal cord” value [4]?
A: significant decrease

Q: What about the “TNFα levels in spinal cord” value [4] of the same compound?
A: significant decrease

Q: And the neurological score (SOD1^G93A mouse model [5]; TgSOD1-Cromolyn vs TgSOD1-Vehicle, all mice, P90, P100, P110, P130, P140)?
A: significantly delayed disease onset and progression

Q: What about the neurological score (SOD1^G93A mouse model [5]; female mice, P90, P100, P120, P130, P140) of the same compound?
A: significant increase in neurological score in the female TgSOD1-Vehicle treated group compared to TgSOD1-Cromolyn group

Q: What about the neurological score (SOD1^G93A mouse model [5]; male mice, P90, P100, P110) of the same compound?
A: significant increase in neurological score in male TgSOD1-Vehicle treated group compared to TgSOD1-Cromolyn group
